{"source": "patent US11298318B2", "about": "“One-step method for production of ultra-small lipid structures” (FOUNTAIN TECHNOLOGIES INTERNATIONAL, LLC, priority 2015, dated 2022)", "test": "Pharmacokinetics of EGCG after oral gavage to rats", "assay_type": "in vivo", "settings": "100 mg/kg", "protocol": "Groups of 10 200-g male rats were administered EGCG by oral gavage, in the form of the USLS prepared as in Example 3 (2.1 ml; 100 mg/kg body weight) or as an identical preparation of EGCG without USLS. Blood samples were collected at 5, 10, 30, 60, 120, and 480 minutes post administration. […] Within 5 minutes after oral administration, the USLS-sequestered compound produced a plasma concentration of 600 ng/ml and a peak plasma concentration of 605 ng/ml at 10 minutes post administration. The EGCG administered without sequestration in USLS produced a peak plasma concentration of only 150 ng/ml at 5 minutes post administration.\nThe pharmacokinetic parameters Cmax (maximum serum concentration), Tmax (time maximum serum concentration is reached), AUC (area under the curve), and Relative Bioavailability were determined from the plasma data and are presented in Table 1, below."}
{"compound": "O=C(O[C@@H]1Cc2c(O)cc(O)cc2O[C@@H]1c1cc(O)c(O)c(O)c1)c1cc(O)c(O)c(O)c1", "note": "[EGCG control, Epigallocatechin gallate]", "values": [{"measurement": "time of peak plasma concentration post administration", "value": 5, "unit": "min"}, {"measurement": "peak plasma concentration of EGCG", "setting": "FIG. 4", "value": 150, "unit": "ng/mL"}, {"measurement": "AUC (0-240 min)", "setting": "Table 1", "value": "14,261"}, {"measurement": "Cmax (maximum serum concentration)", "setting": "Table 1", "value": 116.57}, {"measurement": "Tmax (time maximum serum concentration is reached)", "setting": "Table 1", "value": 5}]}
